Data taken from patent US20230096051A1, “CGRP ANTIGONISTS USEFUL AS TRACER COMPOUNDS FOR POSITRON EMISSION TOMOGRAPHY” (Eli Lilly and Company, priority 2019, published 2023).

Experiments:
[1] = target: T1, hCGRP (human calcitonin gene-related peptide) receptor (Homo sapiens, UniProt O60894+Q16602); assay: Inhibition of cAMP production by CGRP receptor antagonists in SK-N-MC neuroblastoma cells (HTRF); type: cell-based; conditions: human CGRP 0.8 nM as agonist, Kb estimated as agonist-corrected IC50, read-out: hCGRP Kb ± SD
T1 construct: Cultured SK-N-MC neuroblastoma cells that endogenously express the hCGRP receptor (ATCC); host or cells: SK-N-MC neuroblastoma cells
T1 sequence (Q16602 23-461): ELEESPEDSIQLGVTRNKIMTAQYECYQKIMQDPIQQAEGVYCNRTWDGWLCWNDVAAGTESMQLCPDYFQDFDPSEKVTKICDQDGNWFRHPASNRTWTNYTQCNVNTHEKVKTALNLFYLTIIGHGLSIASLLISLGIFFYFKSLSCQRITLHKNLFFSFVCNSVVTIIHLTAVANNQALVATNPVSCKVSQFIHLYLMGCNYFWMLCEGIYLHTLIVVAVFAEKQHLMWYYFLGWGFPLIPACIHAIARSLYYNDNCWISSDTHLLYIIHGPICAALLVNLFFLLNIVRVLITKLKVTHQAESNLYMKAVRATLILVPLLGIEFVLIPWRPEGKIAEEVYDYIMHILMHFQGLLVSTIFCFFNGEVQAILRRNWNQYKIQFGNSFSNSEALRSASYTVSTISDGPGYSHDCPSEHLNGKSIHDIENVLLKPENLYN
T1 sequence (O60894 27-148): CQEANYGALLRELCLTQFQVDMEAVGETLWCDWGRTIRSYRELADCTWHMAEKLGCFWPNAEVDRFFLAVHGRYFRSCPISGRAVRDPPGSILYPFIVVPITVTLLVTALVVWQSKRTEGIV
Protocol: The hCGRP (human calcitonin gene-related peptide) receptor is functionally coupled to the Gas proteins. Stimulation by hCGRP results in an increased synthesis of intracellular cAMP and can be blocked by the addition of receptor antagonists. Receptor activity is thus a reflection of the amount of cAMP present within cells which can be detected using standard in vitro technology.
Cell Culture: Cultured SK-N-MC neuroblastoma cells that endogenously express the hCGRP receptor (ATCC) are grown in Eagle's Minimum essential medium (HYCLONE™) supplemented with 10% heat-inactivated Fetal bovine serum (FBS; GIBCO®), Non-Essential Amino Acids (GIBCO®), 1 mM sodium pyruvate, 2 mM L-glutamine, 100 U/mL of penicillin, and 10 μg/mL of streptomycin to about 70% confluency. After providing fresh medium, the cells are incubated at 37° C. overnight. On the day of the assay, cells are detached using ACCUTASE® (MP Biomedicals), resuspended in assay buffer [Hank's Balanced Salt Solution/Dulbecco's phosphate-buffered saline with […] each of CaCl2 and MgCl2 mixed 1:2, 3.3 mM 4-(2-hydroxyethyl)-1-piperazineethanesulfonic acid, 0.03% bovine serum albumin, and 0.5 mM 1-methyl-3-isobutylxanthine (as inhibitor of cAMP)], and seeded 3-5K/well into 384-well, poly-D-lysine coated white plates (BD Biosciences).
Inhibition of cAMP Production: For dose-response studies, compounds are serially diluted 1:3 in dimethyl sulfoxide and then 1:10 into assay buffer. […]
Data Analysis: The amount of intracellular cAMP is quantitated using HTRF technology (Cisbio) as per vendor instructions. […] The HTRF signal is immediately detected using an ENVISION® plate reader (Perkin-Elmer) to calculate the ratio of fluorescence at […]. […] Relative […] values are calculated from the top-bottom range of the concentration response curve using a four-parameter logistic curve fitting program (ACTIVITYBASE® v5.3.1.22 or GENEDATA SCREENER® v12.0.4), and Kb values are estimated as agonist-corrected IC50 values using the equation: […]

[2] = target: T2, ABCB1, human P-glycoprotein (Pgp) (Homo sapiens, UniProt P08183); assay: In vitro determination of efflux by Pgp, bi-directional transport across MDCKII cells; type: in vitro ADME; conditions: MDCKII-ABCB1, 5 μM substrate, 60 min, B-A/A-B Papp ratios with and without inhibitor
T2 construct: host or cells: MDCKII cells
T2 sequence (P08183 whole entry): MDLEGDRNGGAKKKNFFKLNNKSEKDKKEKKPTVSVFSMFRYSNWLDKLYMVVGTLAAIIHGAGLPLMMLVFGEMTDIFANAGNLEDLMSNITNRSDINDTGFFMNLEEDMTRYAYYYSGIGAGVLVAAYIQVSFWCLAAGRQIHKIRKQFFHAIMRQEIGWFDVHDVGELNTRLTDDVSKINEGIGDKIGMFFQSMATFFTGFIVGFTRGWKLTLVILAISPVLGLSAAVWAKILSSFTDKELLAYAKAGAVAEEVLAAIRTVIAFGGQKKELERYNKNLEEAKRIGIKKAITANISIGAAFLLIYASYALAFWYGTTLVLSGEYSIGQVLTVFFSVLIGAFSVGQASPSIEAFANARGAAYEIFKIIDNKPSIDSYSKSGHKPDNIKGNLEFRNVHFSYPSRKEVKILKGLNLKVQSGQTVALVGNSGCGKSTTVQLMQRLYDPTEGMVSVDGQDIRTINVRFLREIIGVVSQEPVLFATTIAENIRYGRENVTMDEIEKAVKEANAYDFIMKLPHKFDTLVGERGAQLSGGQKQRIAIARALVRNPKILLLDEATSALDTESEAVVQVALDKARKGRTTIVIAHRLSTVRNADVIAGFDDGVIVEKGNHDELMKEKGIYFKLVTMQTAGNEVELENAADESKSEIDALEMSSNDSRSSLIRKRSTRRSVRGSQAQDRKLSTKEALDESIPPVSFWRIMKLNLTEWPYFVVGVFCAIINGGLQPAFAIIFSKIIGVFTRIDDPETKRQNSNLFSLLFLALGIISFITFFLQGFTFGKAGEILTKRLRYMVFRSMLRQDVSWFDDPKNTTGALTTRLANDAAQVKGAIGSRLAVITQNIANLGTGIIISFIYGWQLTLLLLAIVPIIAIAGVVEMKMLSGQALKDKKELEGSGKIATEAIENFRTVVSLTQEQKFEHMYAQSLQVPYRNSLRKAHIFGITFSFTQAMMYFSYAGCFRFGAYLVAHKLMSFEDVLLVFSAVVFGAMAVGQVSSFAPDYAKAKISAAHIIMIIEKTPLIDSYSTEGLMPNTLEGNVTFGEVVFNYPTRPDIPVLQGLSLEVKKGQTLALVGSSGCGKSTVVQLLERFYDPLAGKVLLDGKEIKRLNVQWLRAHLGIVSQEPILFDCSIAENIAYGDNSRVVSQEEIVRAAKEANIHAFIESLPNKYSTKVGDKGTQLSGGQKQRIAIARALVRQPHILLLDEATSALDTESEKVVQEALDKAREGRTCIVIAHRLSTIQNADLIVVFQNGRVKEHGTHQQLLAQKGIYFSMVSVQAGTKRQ
Protocol: Cell Culture: MDCKII cells stably expressing human wild-type ABCB1 (Pgp) are obtained from the Netherlands Cancer Institute (Amsterdam, The Netherlands). MDCK cells are maintained as described previously (Desai et al., Mol Pharm 10:1249-1261, 2013).
Bi-directional transport across MDCK cells: The assay is essentially conducted as described previously (Desai et al., Mol Pharm 10:1249-1261, 2013). Transport is measured in both directions across uninhibited and inhibited cell monolayers using a substrate concentration of 5 μM diluted from a 10 mM DMSO stock solution (final DMSO concentration of 0.05%) and a single 60-min time interval. […] The apparent permeability coefficients (Papp) are estimated as the slope of the mass transported per 60 min relative to the total recovered mass. The basal-to-apical (B-A)/apical-to-basal (A-B) Papp ratios are calculated in the absence or presence of inhibitor in each cell line for net efflux ratio (NER).

| Compound | Kb [1] | net efflux ratio (NER) for efflux by Pgp [2] |
| --- | --- | --- |
| Cc1cc(N2CCC2)cc(OCc2ccc([C@@H](C)[C@@]3(C)C(=O)NC[C@@H]3CF)cc2)n1 [Example 1, (3R,4R)-3-[(1R)-1-[4-[[4-(azetidin-1-yl)-6-methyl-2-pyridyl]oxymethyl]phenyl]ethyl]-4-(fluoromethyl)-3-methyl-pyrrolidin-2-one] | 0.08 ± 0.01 nM | 1.9 |
| Cc1cc(N2CC(F)C2)cc(OCc2ccc([C@@H](C)[C@@]3(C)C(=O)NC[C@@H]3CF)cc2)n1 [Example 3, (3R,4R)-3-[(1R)-1-[4-[[4-(3-fluoroazetidin-1-yl)-6-methyl-2-pyridyl]oxymethyl]phenyl]ethyl]-4-(fluoromethyl)-3-methyl-pyrrolidin-2-one] | 0.1 ± 0.02 nM |  |
| Cc1cc(N2CC(F)C2)cc(OCc2ccc([C@@H](C)[C@@]3(C)C(=O)NC[C@@H]3C)cc2)n1 [Example 2, (3R,4R)-3-[(1R)-1-[4-[[4-(3-fluoroazetidin-1-yl)-6-methyl-2-pyridyl]oxymethyl]phenyl]ethyl]-3,4-dimethyl-pyrrolidin-2-one] | 0.14 ± 0.02 nM | 1.6 |
